Results: ChEMBL document CHEMBL3351857, “Synthesis and biological evaluation of 2,3'-diindolylmethanes as agonists of aryl hydrocarbon receptor” (Bioorg Med Chem Lett, 2014)
pEC50: −log10 of the molar value.

Tests used:
[1] = target: T1, Aryl hydrocarbon receptor (AhR) (Homo sapiens, UniProt P35869); test: Activation of AhR in human HepG2 cells assessed as fluorescence after 24 hrs incubation at 10 nM by EROD assay relative to control; format: cell-based; conditions: read-out: FC
T1 sequence (P35869 whole entry): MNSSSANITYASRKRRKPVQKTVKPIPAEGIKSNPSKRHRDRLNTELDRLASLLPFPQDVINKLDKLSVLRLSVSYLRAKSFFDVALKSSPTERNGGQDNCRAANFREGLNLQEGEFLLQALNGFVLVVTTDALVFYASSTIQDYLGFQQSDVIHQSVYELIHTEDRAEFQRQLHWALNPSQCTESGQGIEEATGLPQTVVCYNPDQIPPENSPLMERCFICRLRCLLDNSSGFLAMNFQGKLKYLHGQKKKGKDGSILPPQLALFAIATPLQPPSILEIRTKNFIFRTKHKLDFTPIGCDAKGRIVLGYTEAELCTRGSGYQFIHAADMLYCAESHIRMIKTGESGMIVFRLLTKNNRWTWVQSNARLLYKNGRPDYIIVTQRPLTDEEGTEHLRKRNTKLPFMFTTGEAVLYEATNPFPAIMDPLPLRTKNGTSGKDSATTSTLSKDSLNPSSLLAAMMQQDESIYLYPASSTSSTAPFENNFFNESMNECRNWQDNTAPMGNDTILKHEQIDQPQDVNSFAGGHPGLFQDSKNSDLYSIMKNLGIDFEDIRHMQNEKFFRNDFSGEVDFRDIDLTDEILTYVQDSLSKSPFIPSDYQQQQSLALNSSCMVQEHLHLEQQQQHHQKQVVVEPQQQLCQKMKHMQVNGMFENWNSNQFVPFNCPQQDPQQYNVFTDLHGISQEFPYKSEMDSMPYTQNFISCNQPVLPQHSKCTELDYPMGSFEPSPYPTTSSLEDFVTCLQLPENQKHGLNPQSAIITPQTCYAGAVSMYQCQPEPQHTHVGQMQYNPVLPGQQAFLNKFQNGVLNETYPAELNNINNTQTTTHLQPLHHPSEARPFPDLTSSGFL

[2] = target: T2, Aryl hydrocarbon receptor (Homo sapiens, UniProt P35869); test: Activation of AhR in human HepG2 cells assessed as fluorescence after 24 hrs incubation by EROD assay; format: cell-based
T2 sequence (P35869 whole entry): T1 sequence (P35869 whole entry)

Homo sapiens = organism: Homo sapiens; test: Half life in human; format: ADME, organism-based; conditions: in vivo

SMILES | fold induction at 24 h, 0.01 µM [1] | further results
O=Cc1c(Cc2c[nH]c3ccc(Cl)cc23)[nH]c2ccccc12 | 5 | –
Cn1cc(Cc2[nH]c3ccccc3c2C=O)c2ccccc21 | 6 | –
Clc1ccc2[nH]cc(Cc3cc4ccccc4[nH]3)c2c1 | – | pEC50 [2]: < 5.17
Clc1cc2c(cc1Cl)Oc1cc(Cl)c(Cl)cc1O2 [2,3,7,8-TETRACHLORODIBENZO-P-DIOXIN] | – | t1/2 (Homo sapiens): 7 yr
